Results from patent US9193731B2, “Antimicrobial compounds and methods of making and using the same” (Melinta Therapeutics, Inc., priority 2009, dated 2015).

Test system: Escherichia coli strain ATCC25922
Experiment: standard microdilution assay to determine minimum inhibitory concentrations (MICs)
Type: cell-based
Conditions: for E. coli ATCC25922 MIC: Escherichia coli strain ATCC25922, microdilution; for MIC: Escherichia coli, ATCC25922, Escherichia coli strain ATCC25922, microdilution, read-out: E. coli ATCC25922 MIC
How it was run: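 E. coli strain ATCC25922 tested per CLSI microdilution methodology (about 100 microliters per well) to find minimum inhibitory concentrations. Activity scored categorically at a 16 micrograms/ml threshold.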

Row | SMILES | E. coli ATCC25922 MIC | MIC
1 | N=C(N)NCCCNCc1ccc(-n2cc3cc(-c4cccc(C(NCCN)C(F)(F)F)c4)[nH]c3nc2=O)cc1 (stereo not shown) [Compound 2025a] | + (a “+” indicates that the compound has an MIC value of 16 micrograms/ml or less) | –
2 | N=C(N)NCCCNCc1ccc(-n2cc3cc(C4CCCC(CNCCN)C4)[nH]c3nc2=O)cc1 (stereo not shown) [Compound 2026a] | – | < 16 µg/mL
3 | N=C(N)NCCCNCc1ccc(-n2cc3cc(-c4cc(OCC(F)CN)cc(-c5ccc([N+](=O)[O-])cc5)c4)[nH]c3nc2=O)cc1 (stereo not shown) [Compound 2027a] | + (a “+” indicates that the compound has an MIC value of 16 micrograms/ml or less) | –
4 | N=C(N)NCCCNCc1ccc(-n2cc3cc(-c4cc(CCCCN)cc(C(F)(F)F)c4)[nH]c3nc2=O)cc1 [Compound 2029a] | – | < 16 µg/mL
5 | N=C(N)NCCCNCc1ccc(-n2cc3cc(-c4cc(OCC(F)CN)cc(-c5cccc(CN)c5)c4)[nH]c3nc2=O)cc1 (stereo not shown) [Compound 2030a] | + (a “+” indicates that the compound has an MIC value of 16 micrograms/ml or less) | –
6 | CS(=O)(=O)NCCc1cc(OCC(F)CN)cc(-c2cc3cn(-c4ccc(CNCCCNC(=N)N)cc4)c(=O)nc3[nH]2)c1 (stereo not shown) [Compound 2031a] | − (a “−” indicates that the compound has an MIC value greater than 16 micrograms/ml) | –
7 | CC(=O)NCCc1cc(OCC(F)CN)cc(-c2cc3cn(-c4ccc(CNCCCNC(=N)N)cc4)c(=O)nc3[nH]2)c1 (stereo not shown) [Compound 2032a] | − (a “−” indicates that the compound has an MIC value greater than 16 micrograms/ml) | –
8 | CCNCCc1cc(OCC(F)CN)cc(-c2cc3cn(-c4ccc(CNCCCNC(=N)N)cc4)c(=O)nc3[nH]2)c1 (stereo not shown) [Compound 2033a] | + (a “+” indicates that the compound has an MIC value of 16 micrograms/ml or less) | –
9 | N=C(N)NCCCNC(=O)c1ccc(-n2cc3cc(-c4cc(CCCCN)cc(C(F)(F)F)c4)[nH]c3nc2=O)cc1 [Compound 2034a] | – | < 16 µg/mL
10 | COCCOCCc1cc(OCC(F)CN)cc(-c2cc3cn(-c4ccc(CNCCCNC(=N)N)cc4)c(=O)nc3[nH]2)c1 (stereo not shown) [Compound 2035a] | − (a “−” indicates that the compound has an MIC value greater than 16 micrograms/ml) | –
11 | COCc1cc(OCC(F)CN)cc(-c2cc3cn(-c4ccc(CNCCCNC(=N)N)cc4)c(=O)nc3[nH]2)c1 (stereo not shown) [Compound 2036a] | + (a “+” indicates that the compound has an MIC value of 16 micrograms/ml or less) | –
12 | CS(=O)(=O)NCc1cc(OCC(F)CN)cc(-c2cc3cn(-c4ccc(CNCCCNC(=N)N)cc4)c(=O)nc3[nH]2)c1 (stereo not shown) [Compound 2037a] | − (a “−” indicates that the compound has an MIC value greater than 16 micrograms/ml) | –
13 | CC(CN)CN1CCC(c2cc3cn(-c4ccc(CNCCCNC(=N)N)cc4)c(=O)nc3[nH]2)C1 (stereo not shown) [Compound 2038a] | + (a “+” indicates that the compound has an MIC value of 16 micrograms/ml or less) | –
14 | CC(CN)CN1CCC(c2cc3cn(-c4ccc(CNCCCNC(=N)N)cc4)c(=O)nc3[nH]2)C1 (stereo not shown) [Compound 2040a] | + (a “+” indicates that the compound has an MIC value of 16 micrograms/ml or less) | –
15 | CC(CN)CN1CCC(c2cc3cn(-c4ccc(CNCCCN)cc4)c(=O)nc3[nH]2)C1 (stereo not shown) [Compound 2041a] | + (a “+” indicates that the compound has an MIC value of 16 micrograms/ml or less) | –
16 | CNCCN1CCCC(c2cc3cn(-c4ccc(CNCCCNC(=N)N)cc4)c(=O)nc3[nH]2)C1 (stereo not shown) [Compound 2042a] | + (a “+” indicates that the compound has an MIC value of 16 micrograms/ml or less) | –
17 | N=C(N)NCCCNCc1ccc(-n2cc3cc(C4CCCN(CCOCCO)C4)[nH]c3nc2=O)cc1 (stereo not shown) [Compound 2043a] | + (a “+” indicates that the compound has an MIC value of 16 micrograms/ml or less) | –
18 | N=C(N)NCCCNCc1ccc(-n2cc3cc(C4CCCN(CCCN5CCOCC5)C4)[nH]c3nc2=O)cc1 (stereo not shown) [Compound 2044a] | + (a “+” indicates that the compound has an MIC value of 16 micrograms/ml or less) | –
19 | N=C(N)NCCCNCc1ccc(-n2cc3cc(-c4cc(C=CCCN)cc(OC(F)(F)F)c4)[nH]c3nc2=O)cc1 [Compound 2045a] | + (a “+” indicates that the compound has an MIC value of 16 micrograms/ml or less) | –
